The values below come from patent US20060100431A1, “Biologically active compounds” (Amura Therapeutics Limited, priority 2002, published 2006).

The structures appear in SMILES notation.

What all share (format): biochemical
One assay addresses Wild-type cruzipain (Trypanosoma cruzi, UniProt P25779). Briefly: Trypanosoma cruzi cruzipain peptidase activity assay (Ki). Particulars: read-out: Ki, inhibitors of cruzain and cruzipains. The gist of the method:
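Native cruzipain from T. cruzi Dm28 epimastigotes, 2.5 nM, in 100 mM sodium phosphate pH 6.75 with 1 mM EDTA and 10 mM L-cysteine, 25 °C, DMSO <1%. Rates taken from continuous fluorogenic substrate read; Ki by regression assuming reversible pure-competitive inhibition.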

For the next assay, the target named is T1, CPB2.8ΔCTE (Leishmania mexicana, UniProt P36400).
T1 construct: Wild-type recombinant CPB without the C-terminal extention (i.e. CPB2.8ΔCTE); Dr. Jeremy Mottram (Wellcome Centre for Molecular Parasitology, University of Glasgow)
Description: Leishmania mexicana cysteine protease B (CPB) peptidase activity assay (Ki). Particulars: Ki, inhibitors of Leismania mexicana CPB protease. An outline of the steps: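 Recombinant CPB2.8ΔCTE (0.25 nM) was assayed in 100 mM sodium acetate pH 5.5 with 1 mM EDTA, 200 mM NaCl and 10 mM DTT at 25 °C, DMSO <1%, enzyme added to start. Rates were taken from continuous fluorescence slopes; apparent Ki was fitted assuming reversible, pure-competitive inhibition.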

For another assay, the target named is T2, Bovine cathepsin S (Bos taurus, UniProt P25326).
T2 construct: purchased CN Biosciences
Description: Cathepsin S peptidase activity assay, bovine enzyme (Ki). Particulars: species of cathepsin S not given; read-out: Ki, inhibitors of cathepsin S. As for the experimental part: Unless otherwise stated, all general chemicals and biochemicals were purchased from either the Sigma Chemical Company, Poole, Dorset, U.K or from Fisher Scientific UK, Loughborough, Leicestershire, U.K. Absorbance assays were carried out in flat-bottomed 96-well plates (Spectra; Greiner Bio-One Ltd., Stonehouse, Gloucestershire, U.K.) using a SpectraMax PLUS384 plate reader (Molecular Devices, Crawley, U.K.). Fluorescence high throughput assays were carried out in either 384-well microtitre plates (Corning Costar 3705 plates, Fisher Scientific) or 96-well ‘U’ bottomed Microfluor W1 microtitre plates (Thermo Labsystems, Ashford, Middlesex, U.K.). Fluorescence assays were monitored using a SpectraMax Gemini fluorescence plate reader (Molecular Devices). For substrates employing either a 7-amino-4-methylcoumarin (AMC) or a 7-amino-4-trifluoromethylcoumarin (AFC) fluorophore, assays were monitored at an excitation wavelength of 365 nm and an emission wavelength of 450 nm and the fluorescence plate reader calibrated with AMC. For substrates employing a 3-amino-benzoyl (Abz) fluorophore, assays were monitored at an excitation wavelength of 310 nm and an emission wavelength of 445 nm; the fluorescence plate reader calibrated with 3-amino-benzamide (Fluka). Unless otherwise indicated, all the peptidase substrates were purchased from Bachem UK, St Helens, Merseyside, UK. Substrates utilizing fluorescence resonance energy transfer methodology (i.e. FRET-based substrates) were synthesized at Incenta Limited using published methods (Atherton & Sheppard, Solid Phase Peptide Synthesis, IRL Press, Oxford, U.K, 1989) and employed Abz (2-aminobenzoyl) as the fluorescence donor and 3-nitro-tyrosine [Tyr(NO2)] as the fluorescence quencher (Meldal, M. and Breddam, K., Anal. Biochem, 195, 141-147, 1991). Hydroxyethylpiperazine ethanesulfonate (HEPES), tris-hydroxylmethyl aminomethane (tris) base, bis-tris-propane and all the biological detergents (e.g. CHAPS, zwittergents, etc.) were purchased from CN Biosciences UK, Beeston, Nottinghamshire, U.K. Glycerol was purchased from Amersham Pharmacia Biotech, Little Chalfont, Buckinghamshire, U.K. Stock solutions of substrate or inhibitor were made up to 10 mM in 100% dimethylsulfoxide (DMSO) (Rathburns, Glasgow, U.K.) and diluted as appropriately required. In all cases the DMSO concentration in the assays was maintained at less than 1% (vol./vol.).
Assay protocols were based on literature precedent (Table 4; Barrett, A. J., Rawlings, N. D. and Woessner, J. F., 1998, Handbook of Proteolytic Enzymes, Academic Press, London and references therein) and modified as required to suit local assay protocols. Enzyme was added as required to initiate the reaction and the activity, as judged by the change in fluorescence upon conversion of substrate to product, was monitored over time. All assays were carried out at 25±1° C.
Bovine cathepsin S, human cathepsin L, human cathepsin H and human cathepsin B were obtained from CN Biosciences. Recombinant human cathepsin S, human cathepsin K and human cathepsin X were obtained from Dr. Boris Turk (Josef Stefan Institute, Ljubljana, Slovenia). Unless otherwise stated, all peptidase activity assays were carried out in 10 mM bis-tris-propane (BTP), pH 6.5 containing 1 mM EDTA, 5 mM 2-mercaptoethanol and 1 mM CaCl2. Human cathepsin H activity assays were carried out in 10 mM BTP pH 6.5, 142 mM NaCl2, 1 mM CaCl2, 1 mM EDTA, 1 mM DTT, 0.035 mM Zwittergent 3-16. Human cathepsin K assays were carried out in 100 mM sodium acetate; pH 5.5 containing 20 mM L-cysteine and 1 mM EDTA (Bossard, M. J., et. al., J. Biol. Chem., 21, 12517-12524, 1996). Human cathepsin X assays were carried out in 100 mM sodium acetate; pH 5.5 containing 20 mM L-cysteine; 0.05% (w/v) Brij 35 and 1 mM EDTA (Santamaria, I., et. al., J. Biol. Chem., 273, 16816-16823, 1998; Klemencic, J, et al., Eur. J. Biochem., 267, 5404-5412, 2000).

T2 sequence (P25326 115-331): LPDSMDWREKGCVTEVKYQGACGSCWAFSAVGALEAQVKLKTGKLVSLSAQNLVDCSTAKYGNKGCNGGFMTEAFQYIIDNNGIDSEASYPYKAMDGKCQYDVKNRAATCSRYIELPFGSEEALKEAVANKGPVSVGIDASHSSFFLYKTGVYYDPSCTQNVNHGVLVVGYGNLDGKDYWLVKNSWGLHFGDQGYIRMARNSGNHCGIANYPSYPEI
Sequence of Wild-type cruzipain (P25779 whole entry): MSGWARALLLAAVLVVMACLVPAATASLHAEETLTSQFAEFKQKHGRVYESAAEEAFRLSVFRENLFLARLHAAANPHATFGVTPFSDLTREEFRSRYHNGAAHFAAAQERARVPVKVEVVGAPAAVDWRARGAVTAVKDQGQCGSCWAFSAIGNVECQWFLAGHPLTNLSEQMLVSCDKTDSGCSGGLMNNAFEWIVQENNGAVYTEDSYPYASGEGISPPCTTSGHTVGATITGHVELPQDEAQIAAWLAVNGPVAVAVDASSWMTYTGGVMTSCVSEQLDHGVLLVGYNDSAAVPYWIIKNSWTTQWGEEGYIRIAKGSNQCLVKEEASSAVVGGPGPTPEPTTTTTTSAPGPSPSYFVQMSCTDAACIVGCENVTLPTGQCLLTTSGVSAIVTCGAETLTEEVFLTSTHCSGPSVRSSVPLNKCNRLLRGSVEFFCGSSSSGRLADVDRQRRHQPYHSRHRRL
T1 sequence (P36400 126-343, stated change not applied): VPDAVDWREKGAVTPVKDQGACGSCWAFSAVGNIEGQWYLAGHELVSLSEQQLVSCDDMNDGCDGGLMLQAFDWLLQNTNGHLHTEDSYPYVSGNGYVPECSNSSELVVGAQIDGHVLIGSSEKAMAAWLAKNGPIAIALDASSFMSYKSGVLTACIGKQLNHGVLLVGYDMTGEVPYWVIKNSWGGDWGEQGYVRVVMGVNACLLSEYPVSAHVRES

As for `CC(C)C[C@H](NC(=O)c1cccc(Oc2ccccc2)c1)C(=O)N1CC[C@@H]2[C@H]1C(=O)CN2C(=O)c1ccccc1` [Example 13, (3aR,6aS)-N-[(1S)-1-(4-Benzoyl-6-oxo-hexahydro-pyrrolo[3,2-b]pyrrole-1-carbonyl)-3-methyl-butyl]-3-phenoxy-benzamide], the Ki on Wild-type cruzipain, on CPB2.8ΔCTE and at Bovine cathepsin S was less than 5 µM in each case.
Consider `CC(C)C[C@H](NC(=O)c1cnc2ccccc2n1)C(=O)N1CC[C@@H]2[C@H]1C(=O)CN2C(=O)c1cccnc1` [Example 19, (3aR,6aS)-Quinoxaline-2-carboxylic acid {(1S)-3-methyl-1-[6-oxo-4-(pyridine-3-carbonyl)-hexahydro-pyrrolo[3,2-b]pyrrole-1-carbonyl]-butyl}-amide], for which the Ki at Wild-type cruzipain and on Bovine cathepsin S was less than 5 µM each time.
In the case of `CC(C)C[C@H](NC(=O)c1cccc(Oc2ccccc2)c1)C(=O)N1CC[C@@H]2[C@H]1C(=O)CN2C(=O)c1cccnc1` [Example 20, (3aR,6aS)-N-{(1S)-3-Methyl-1-[6-oxo-4-(pyridine-3-carbonyl)-hexahydro-pyrrolo[3,2-b]pyrrole-1-carbonyl]-butyl}-3-phenoxy-benzamide], the Ki on Wild-type cruzipain, at CPB2.8ΔCTE and on Bovine cathepsin S was less than 5 µM in each case.
`O=C(N[C@@H](CC1CC1)C(=O)N1CC[C@@H]2[C@H]1C(=O)CN2C(=O)c1ccccc1)c1ccsc1` [Example 187, (3aR,6aS)-Thiophene-3-carboxylic acid [(1S)-2-(4-benzoyl-6-oxo-hexahydro-pyrrolo[3,2-b]pyrrole-1-yl)-1-cyclopropylmethyl-2-oxo-ethyl]-amide]: the inhibition constant Ki on Bovine cathepsin S is less than 5 µM.
In the case of `CS(=O)(=O)c1ccccc1C(=O)N1CC(=O)[C@@H]2[C@H]1CCN2C(=O)[C@H](Cc1ccc(O)cc1)NC(=O)c1cccc(Br)c1` [Example 303, (3aR,6aS)-3-Bromo-N-{(1S)-1-(4-hydroxy-benzyl)-2-[4-(2-methanesulfonyl-benzoyl)-6-oxo-hexahydro-pyrrolo[3,2-b]pyrrole-1-yl]-2-oxo-ethyl}-benzamide], the Ki at Wild-type cruzipain and on Bovine cathepsin S was less than 5 µM throughout.
As for `O=C(N[C@@H](Cc1ccc(O)cc1)C(=O)N1CC[C@@H]2[C@H]1C(=O)CN2C(=O)c1ccccc1)c1ccc2ncsc2c1` [Example 317, (3aR,6aS)-Benzothiazole-6-carboxylic acid [(1S)-2-(4-benzoyl-6-oxo-hexahydro-pyrrolo[3,2-b]pyrrole-1-yl)-1-(4-hydroxy-benzyl)-2-oxo-ethyl]-amide], the Ki on Wild-type cruzipain and on Bovine cathepsin S was less than 5 µM throughout.
For `O=C(N[C@@H](Cc1ccc(O)cc1)C(=O)N1CC[C@@H]2[C@H]1C(=O)CN2C(=O)c1ccccc1)c1cccc(Cl)c1` [Example 334, (3aR,6aS)-N-[(1S)-2-(4-Benzoyl-6-oxo-hexahydro-pyrrolo[3,2-b]pyrrol-1-yl)-1-(4-hydroxy-benzyl)-2-oxo-ethyl]-3-chloro-benzamide], the Ki at Wild-type cruzipain and at Bovine cathepsin S was less than 5 µM each time.
As to `O=C(N[C@@H](Cc1ccc(O)cc1)C(=O)N1CC[C@@H]2[C@H]1C(=O)CN2C(=O)c1ccccc1)c1cccc(F)c1` [Example 335, (3aR,6aS)-N-[(1S)-2-(4-Benzoyl-6-oxo-hexahydro-pyrrolo[3,2-b]pyrrol-1-yl)-1-(4-hydroxy-benzyl)-2-oxo-ethyl]-3-fluoro-benzamide], the Ki on Wild-type cruzipain and at Bovine cathepsin S was less than 5 µM each time.
Take `CC(C)C[C@H](NC(=O)c1cccc(Br)c1)C(=O)N1CC[C@@H]2[C@H]1C(=O)CN2C(=O)c1ccccc1` [Example 340, (3aR,6aS)-N-[(1S)-1-(4-Benzoyl-6-oxo-hexahydro-pyrrolo[3,2-b]pyrrole-1-carbonyl)-3-methyl-butyl]-3-bromo-benzamide]: the Ki on Bovine cathepsin S was less than 5 µM.

The term Ki denotes the equilibrium dissociation constant of an inhibitor or competing ligand from its target.
